Measurements from paper PMC4860631, “Pharmacokinetics and tolerability of NSC23925b, a novel P-glycoprotein inhibitor: preclinical study in mice and rats” (Scientific Reports, 2016).
Read-outs that look alike come from different tables or passages of the source.

Experiments:
CYP2D6 = CYP2D6 (Homo sapiens, UniProt P10635); assay: HLM-LC-MS CYP450 inhibition assay, CYP2D6
Method: (§4) A sigmoid-shaped curve (Log(inhibitor) vs. Response-Variable slope) was fitted to the data and the IC50 was calculated using GraphPad Prism software.
(§5) This assay used a cocktail of drug-probe substrates that are specific to each isozyme with HLM and LC-MS detection[33][34]. Each test article and reference inhibitor was dissolved in 40% DMSO and 60% acetonitrile (ACN) mixture. […] Substrates were then added to their respective well containing the compound/HLM solution to start the reaction. […] The solution was centrifuged at 4 °C for 30 min at 3,700 rpm and the supernatant was transferred for LC-MS analysis. The concentrations of the metabolites were determined from standard curves using commercially available metabolite standards. Compounds were tested in triplicate. The half maximal inhibitory concentration (IC50) values were determined by plotting the metabolite formation over the logarithm of the compound concentration using Prism 5.0 software (GraphPad Software Inc., San Diego, CA).

[1] = Determination of maximum tolerated dose (MTD) in mice; assay type: in vivo; details: mouse, in vivo
Method: (§1) The MTD determination assay was composed of sighting study and main study. For the sighting study of the determination maximum tolerable dose (MTD) of NSC23925b, one of each animal (one female rat, one male rat, one female mouse, and one male mouse) was used at each I.V. and I.P. injection dose level. The starting dose was selected from the fixed dose levels (5, 50, 500, 2000 mg/kg) as a dose expected to produce evident toxicity. The first animal was dosed and observed. Time of appearance, degree, and lasting/recovery time of signs were recorded in details. Afterwards, animals were observed twice on the dosing day and then changed to daily observation. The observation lasted at least 14 days. If the first animal died or appeared impaired, the second animal received a middle dose of the two doses and vice versa. The sighting study was completed when a decision on the starting dose for the main study was made.
(§2) During the main study, a total of five animals of one sex were used for each dose level investigated. The five animals were made up of one animal from the sighting study dosed at the selected dose level together with an additional four animals. Each group received one of the fixed doses by I.V. and I.P. based on the sighting study. If the first animal died or appeared impaired, the second animal received a middle dose of the two doses and vice versa.
(§3) Animals were fasted overnight prior to dosing. Following the period of fasting, the animals were weighed and the dose was calculated according to the body weight. After the animals were administrated a dose volume of 10 mL/kg, food was withheld for another 3–4 hours. Individual weights of animals were determined shortly before the test substance was administered and twice weekly thereafter. Weight changes were calculated and recorded. Animals injected with saline were the control group for the weight alteration.

BALB/c mice = assay: as above; assay type: in vivo; details: mice, 5 exposed
Method: as §1, §2, §3

[2] = Determination of maximum tolerated dose (MTD) in rats; assay type: in vivo; details: Sprague-Dawley, in vivo, read-out: tolerated dosage (MTD study)
Method: as §1, §2, §3

SD rats = assay: as above; assay type: in vivo; details: SD rats, 5 exposed
Method: as §1, §2, §3

CYP2C9 = biological target: T1, CYP2C9 (Homo sapiens, UniProt P11712); assay: HLM-LC-MS CYP450 inhibition assay, CYP2C9; assay type: in vitro ADME
T1 construct: from tissue; host or cells: human liver microsomes
Method: as §4, §5

in vivo = details: male, Sprague-Dawley, rat; for AUC(0-inf): AUC0-inf; for AUC(0-t): AUC0-t; for k el: Kel; for half-life: t1/2
CYP2C19 = biological target: T2, CYP2C19 (Homo sapiens, UniProt P33261); assay: HLM-LC-MS CYP450 inhibition assay, CYP2C19; assay type: in vitro ADME
T2 construct: from tissue; host or cells: human liver microsomes
Method: Compounds were tested in triplicate.

CYP2C8 = biological target: T3, CYP2C8 (Homo sapiens, UniProt P10632); assay: HLM-LC-MS CYP450 inhibition assay, CYP2C8; assay type: in vitro ADME
T3 construct: from tissue; host or cells: human liver microsomes
T3 sequence (P10632 1-490): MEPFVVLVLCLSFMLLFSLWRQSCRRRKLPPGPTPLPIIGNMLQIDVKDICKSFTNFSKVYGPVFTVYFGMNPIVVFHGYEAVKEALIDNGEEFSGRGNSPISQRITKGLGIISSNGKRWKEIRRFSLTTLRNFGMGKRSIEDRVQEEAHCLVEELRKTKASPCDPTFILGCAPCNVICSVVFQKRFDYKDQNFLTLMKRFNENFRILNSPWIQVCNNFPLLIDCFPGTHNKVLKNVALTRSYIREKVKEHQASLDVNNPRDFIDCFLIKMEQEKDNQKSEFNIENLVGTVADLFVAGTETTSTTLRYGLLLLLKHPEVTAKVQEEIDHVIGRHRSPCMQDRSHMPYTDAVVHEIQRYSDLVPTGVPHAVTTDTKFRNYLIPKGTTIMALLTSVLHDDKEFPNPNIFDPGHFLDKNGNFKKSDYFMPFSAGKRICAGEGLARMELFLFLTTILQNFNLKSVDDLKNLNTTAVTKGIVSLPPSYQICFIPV
Method: as §4, §5

CYP1A2 = biological target: T4, CYP1A2 (Homo sapiens, UniProt P05177); assay: HLM-LC-MS CYP450 inhibition assay, CYP1A2; assay type: in vitro ADME
T4 sequence (P05177 1-516): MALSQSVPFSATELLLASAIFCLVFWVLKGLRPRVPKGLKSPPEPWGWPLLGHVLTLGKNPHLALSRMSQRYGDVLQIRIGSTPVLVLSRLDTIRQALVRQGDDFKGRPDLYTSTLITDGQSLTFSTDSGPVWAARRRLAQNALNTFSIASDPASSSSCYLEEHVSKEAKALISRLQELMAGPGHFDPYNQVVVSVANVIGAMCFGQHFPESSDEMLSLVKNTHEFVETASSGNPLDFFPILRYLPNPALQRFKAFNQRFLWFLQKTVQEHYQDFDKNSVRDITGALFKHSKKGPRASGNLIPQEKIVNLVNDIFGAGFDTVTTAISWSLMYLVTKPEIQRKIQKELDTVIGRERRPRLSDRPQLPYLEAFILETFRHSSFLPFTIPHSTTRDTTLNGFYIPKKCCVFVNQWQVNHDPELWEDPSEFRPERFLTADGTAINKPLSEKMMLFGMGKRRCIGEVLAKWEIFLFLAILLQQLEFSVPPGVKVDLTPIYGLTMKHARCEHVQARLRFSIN

[3] = male, Sprague-Dawley, rat, in vivo
CYP3A4 = biological target: T5, CYP3A4 (Homo sapiens, UniProt P08684); assay: HLM-LC-MS CYP450 inhibition assay, CYP3A4; assay type: in vitro ADME
T5 construct: from tissue; host or cells: human liver microsomes
T5 sequence (P08684 whole entry): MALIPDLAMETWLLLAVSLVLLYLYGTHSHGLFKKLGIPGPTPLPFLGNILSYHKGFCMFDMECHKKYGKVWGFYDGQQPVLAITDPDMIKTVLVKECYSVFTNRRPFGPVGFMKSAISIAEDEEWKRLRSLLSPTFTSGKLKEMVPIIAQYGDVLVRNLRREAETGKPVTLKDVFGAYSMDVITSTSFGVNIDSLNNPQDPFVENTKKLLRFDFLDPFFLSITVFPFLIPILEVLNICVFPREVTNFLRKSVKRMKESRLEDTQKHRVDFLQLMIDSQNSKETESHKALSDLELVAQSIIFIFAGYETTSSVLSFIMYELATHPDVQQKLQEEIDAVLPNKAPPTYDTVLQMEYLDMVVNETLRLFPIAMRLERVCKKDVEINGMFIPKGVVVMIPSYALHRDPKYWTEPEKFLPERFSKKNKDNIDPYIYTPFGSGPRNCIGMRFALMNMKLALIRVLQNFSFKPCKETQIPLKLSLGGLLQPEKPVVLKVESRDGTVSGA
Method: as §4, §5

CYP2D6, sequence (P10635 whole entry): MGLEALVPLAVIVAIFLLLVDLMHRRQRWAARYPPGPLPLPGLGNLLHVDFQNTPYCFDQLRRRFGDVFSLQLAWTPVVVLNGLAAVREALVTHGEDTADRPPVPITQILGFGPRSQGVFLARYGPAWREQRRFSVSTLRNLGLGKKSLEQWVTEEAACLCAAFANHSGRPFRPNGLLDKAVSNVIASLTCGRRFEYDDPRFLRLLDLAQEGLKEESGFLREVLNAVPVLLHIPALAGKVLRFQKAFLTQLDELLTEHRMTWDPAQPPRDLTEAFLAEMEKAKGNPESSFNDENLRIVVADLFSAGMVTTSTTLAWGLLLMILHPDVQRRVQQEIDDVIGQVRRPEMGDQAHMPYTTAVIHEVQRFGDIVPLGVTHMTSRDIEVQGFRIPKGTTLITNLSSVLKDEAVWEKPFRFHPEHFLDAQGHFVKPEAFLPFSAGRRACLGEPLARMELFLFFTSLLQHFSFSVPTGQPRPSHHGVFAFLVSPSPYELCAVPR
T2 sequence (P33261 whole entry): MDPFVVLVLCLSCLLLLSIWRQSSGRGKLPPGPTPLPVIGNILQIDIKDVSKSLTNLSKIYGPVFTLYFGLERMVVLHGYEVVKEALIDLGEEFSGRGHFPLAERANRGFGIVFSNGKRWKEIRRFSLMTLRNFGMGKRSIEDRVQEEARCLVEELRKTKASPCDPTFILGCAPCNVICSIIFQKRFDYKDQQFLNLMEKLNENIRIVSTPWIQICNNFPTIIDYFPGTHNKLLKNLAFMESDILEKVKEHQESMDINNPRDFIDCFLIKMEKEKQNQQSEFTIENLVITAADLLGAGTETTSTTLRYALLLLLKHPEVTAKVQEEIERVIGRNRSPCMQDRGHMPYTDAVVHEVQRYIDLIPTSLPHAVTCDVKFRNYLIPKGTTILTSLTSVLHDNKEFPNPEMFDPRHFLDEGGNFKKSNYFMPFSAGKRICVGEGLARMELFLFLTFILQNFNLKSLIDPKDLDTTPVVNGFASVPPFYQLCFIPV
T1 sequence (P11712 whole entry): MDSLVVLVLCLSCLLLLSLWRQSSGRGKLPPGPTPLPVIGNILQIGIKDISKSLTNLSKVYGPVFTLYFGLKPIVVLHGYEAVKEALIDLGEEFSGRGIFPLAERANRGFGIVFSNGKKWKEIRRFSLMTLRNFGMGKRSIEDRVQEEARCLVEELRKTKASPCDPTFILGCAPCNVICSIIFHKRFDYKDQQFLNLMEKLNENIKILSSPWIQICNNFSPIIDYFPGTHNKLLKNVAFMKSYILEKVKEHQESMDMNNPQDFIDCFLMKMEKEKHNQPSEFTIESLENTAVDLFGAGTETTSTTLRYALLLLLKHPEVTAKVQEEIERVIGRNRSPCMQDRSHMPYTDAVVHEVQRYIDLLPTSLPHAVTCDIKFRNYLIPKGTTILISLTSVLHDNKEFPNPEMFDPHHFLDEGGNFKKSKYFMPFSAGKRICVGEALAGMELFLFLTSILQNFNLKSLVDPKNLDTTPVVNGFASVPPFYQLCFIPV

COc1ccc(-c2cc(C(O)C3CCCCN3)c3ccccc3n2)cc1 (stereo not shown) [NSC23925b, (2-(4-methoxyphenyl)-4-quinolinyl)(2-piperidinyl)methanol]
IC50 (CYP2D6; Compound IC50, HLM, substrate bufuralol 10 μM): 1.41 µM | CYP inhibitor class (CYP2D6; HLM, bufuralol): moderate (1–10 μM) | MTD ([1]; BALB/c, ip, male mice, I.P., all five tolerated, read-out: tolerated dosage (MTD study)): 68.8 mg/kg | MTD ([1]; both sexes, BALB/c (mice), Sprague-Dawley (rats), intraperitoneal, intravenous, rodents (mice and rats), I.P./I.V., read-out: tolerated dosage according to the MTD results): 24.7 to 93.8 mg/kg | MTD ([1]; both sexes, BALB/c, iv, female and male mice, I.V., health conditions not significantly influenced, read-out: tolerated dosage (MTD study)): 24.7 mg/kg | Number of Death (BALB/c mice; I.P., 68.80 mg/kg, male): 0 | Number of Death (BALB/c mice; I.P., 93.75 mg/kg, female): 2 | Number of Death (BALB/c mice; I.V., 24.70 mg/kg, female): 0 | Number of Death (BALB/c mice; I.V., 24.70 mg/kg, male): 0 | MTD ([2]; iv, female rats, I.V., one female rat moribund): 47.2 mg/kg | MTD ([2]; rat, ip, male rats, I.P., all in good status): 33.1 mg/kg | MTD ([2]; rat, iv, male rats, I.V.): 38.8 mg/kg | Number of Death (SD rats; I.P., 33.10 mg/kg, male): 0 | Number of Death (SD rats; I.P., 47.20 mg/kg, female): 1 | Number of Death (SD rats; I.V., 38.80 mg/kg, male): 0 | Number of Death (SD rats; I.V., 47.20 mg/kg, female): 1 | CYP inhibitor class (CYP2C9): weak (IC50 values of >10 μM) | IC50 (CYP2C9; substrate diclofenac 10 μM, 4-hydroxylation, read-out: Compound IC50): > 10 µM | Cmax (in vivo; ip, 5 mg/kg): 128 ± 44.3 ng/mL | AUC(0-inf) (in vivo; ip, 5 mg/kg): 1990 ± 855 ng·h/mL | AUC(0-t) (in vivo; ip, 5 mg/kg): 1390 ± 173 ng·h/mL | k el (in vivo; ip, 5 mg/kg): 2.29e-05 s⁻¹ | half-life (in vivo; ip, 5 mg/kg): 9.24 ± 3.77 h | Tmax (in vivo; ip, 5 mg/kg, tmax): ~2.17 h | AUC(0-inf) (in vivo; iv, 2.5 mg/kg): 902 ± 57.4 ng·h/mL | AUC(0-t) (in vivo; iv, 2.5 mg/kg): 766 ± 51.9 ng·h/mL | clearance (in vivo; iv, 2.5 mg/kg, CL): 46.3 ± 3.06 mL/min/kg | k el (in vivo; iv, 2.5 mg/kg): 2.18e-05 s⁻¹ | Vd (in vivo; iv, 2.5 mg/kg, VdSS): 32.4 ± 3.06 L/kg | half-life (in vivo; iv, 2.5 mg/kg): 8.86 ± 0.541 h | CYP inhibitor class (CYP2C19): weak (IC50 values of >10 μM) | IC50 (CYP2C19; substrate S-mephenytoin 35 μM, 4-hydroxylation, read-out: Compound IC50): > 10 µM | CYP inhibitor class (CYP2C8): weak (IC50 values of >10 μM) | IC50 (CYP2C8; substrate paclitaxel 10 μM, 6α-hydroxylation, read-out: Compound IC50): > 10 µM | CYP inhibitor class (CYP1A2): weak (IC50 values of >10 μM) | IC50 (CYP1A2; substrate phenacetin 30 μM, O-deethylation, read-out: Compound IC50): > 10 µM | AUMC0-inf ([3]; ip, 5 mg/kg): 38450 ± 36415 h·h·ng·mL^−1 | AUMC0-t ([3]; ip, 5 mg/kg): 13328 ± 5611 h·h·ng·mL^−1 | F ([3]; ip, 5 mg/kg): 110.6 ± 47.4% | AUMC0-inf ([3]; iv, 2.5 mg/kg): 10502 ± 642 h·h·ng·mL^−1 | AUMC0-t ([3]; iv, 2.5 mg/kg): 5504 ± 317 h·h·ng·mL^−1 | MRTIV ([3]; iv, 2.5 mg/kg): 11.7 ± 0.512 h | CYP inhibitor class (CYP3A4): weak (IC50 values of >10 μM) | IC50 (CYP3A4; substrate midazolam 5 μM, 1-hydroxylation, read-out: Compound IC50): > 10 µM | IC50 (CYP3A4; substrate not specified, read-out: IC50): > 10 µM | IC50 (CYP3A4; substrate testosterone 80 μM, 6ß-hydroxylation, read-out: Compound IC50): > 10 µM
